From article PMC5053573, “Structure-Based Design of Tetrahydroisoquinoline-7-carboxamides as Selective Discoidin Domain Receptor 1 (DDR1) Inhibitors” (Journal of Medicinal Chemistry, 2016)

What was measured:
Test in all cases: biochemical
Conditions in all cases: read-out: %Ctrl @ 1000nM
CDKL2 = CDKL2 (Homo sapiens, UniProt Q92772)
ALK(C1156Y) = ALK(C1156Y) (Homo sapiens, UniProt Q9UM73, C1156Y)
SBK1 = SBK1 (Homo sapiens, UniProt Q52WX2)
PIKFYVE = PIKFYVE (Homo sapiens, UniProt Q9Y2I7)
[1] = molecular target: ABL1(M351T)-phosphorylated (Homo sapiens, UniProt P00519, M351T)
FGFR2 = FGFR2 (Homo sapiens, UniProt P21802)
RIOK1 = RIOK1 (Homo sapiens, UniProt Q9BRS2)
MAP3K3 = MAP3K3 (Homo sapiens, UniProt Q99759)
ERBB4 = ERBB4 (Homo sapiens, UniProt Q15303)
PDGFRB = PDGFRB (Homo sapiens, UniProt P09619)
PDGFRB, sequence (P09619 whole entry): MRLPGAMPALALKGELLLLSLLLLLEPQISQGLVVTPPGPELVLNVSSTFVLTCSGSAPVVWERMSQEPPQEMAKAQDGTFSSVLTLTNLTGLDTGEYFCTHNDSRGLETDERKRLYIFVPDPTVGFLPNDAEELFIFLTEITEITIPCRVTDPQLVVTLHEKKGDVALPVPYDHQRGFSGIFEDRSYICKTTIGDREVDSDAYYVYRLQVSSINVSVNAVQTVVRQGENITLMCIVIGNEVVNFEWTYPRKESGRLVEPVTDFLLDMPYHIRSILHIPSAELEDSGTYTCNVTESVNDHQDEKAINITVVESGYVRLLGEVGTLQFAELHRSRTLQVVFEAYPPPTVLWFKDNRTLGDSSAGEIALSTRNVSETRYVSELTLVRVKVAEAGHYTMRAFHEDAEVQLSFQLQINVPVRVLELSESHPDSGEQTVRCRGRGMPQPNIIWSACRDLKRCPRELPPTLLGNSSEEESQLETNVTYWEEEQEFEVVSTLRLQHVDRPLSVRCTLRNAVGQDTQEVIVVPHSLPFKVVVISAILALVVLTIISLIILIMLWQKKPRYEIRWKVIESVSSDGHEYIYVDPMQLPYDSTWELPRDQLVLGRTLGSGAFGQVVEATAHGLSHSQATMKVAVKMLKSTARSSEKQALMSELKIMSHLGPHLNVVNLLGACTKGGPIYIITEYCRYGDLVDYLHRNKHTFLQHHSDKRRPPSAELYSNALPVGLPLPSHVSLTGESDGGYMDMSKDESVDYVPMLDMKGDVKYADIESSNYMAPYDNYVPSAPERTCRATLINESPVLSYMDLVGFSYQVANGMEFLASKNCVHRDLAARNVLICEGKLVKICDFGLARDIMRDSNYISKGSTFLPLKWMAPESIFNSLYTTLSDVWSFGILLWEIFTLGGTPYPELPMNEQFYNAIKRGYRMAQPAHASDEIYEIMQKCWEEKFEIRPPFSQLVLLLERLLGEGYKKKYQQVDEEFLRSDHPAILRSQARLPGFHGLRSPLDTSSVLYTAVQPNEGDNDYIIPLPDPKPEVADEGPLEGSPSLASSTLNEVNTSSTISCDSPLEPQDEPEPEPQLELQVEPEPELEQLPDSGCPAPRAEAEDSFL

MYO3B = MYO3B (Homo sapiens, UniProt Q8WXR4)
MYO3B, sequence (Q8WXR4 whole entry): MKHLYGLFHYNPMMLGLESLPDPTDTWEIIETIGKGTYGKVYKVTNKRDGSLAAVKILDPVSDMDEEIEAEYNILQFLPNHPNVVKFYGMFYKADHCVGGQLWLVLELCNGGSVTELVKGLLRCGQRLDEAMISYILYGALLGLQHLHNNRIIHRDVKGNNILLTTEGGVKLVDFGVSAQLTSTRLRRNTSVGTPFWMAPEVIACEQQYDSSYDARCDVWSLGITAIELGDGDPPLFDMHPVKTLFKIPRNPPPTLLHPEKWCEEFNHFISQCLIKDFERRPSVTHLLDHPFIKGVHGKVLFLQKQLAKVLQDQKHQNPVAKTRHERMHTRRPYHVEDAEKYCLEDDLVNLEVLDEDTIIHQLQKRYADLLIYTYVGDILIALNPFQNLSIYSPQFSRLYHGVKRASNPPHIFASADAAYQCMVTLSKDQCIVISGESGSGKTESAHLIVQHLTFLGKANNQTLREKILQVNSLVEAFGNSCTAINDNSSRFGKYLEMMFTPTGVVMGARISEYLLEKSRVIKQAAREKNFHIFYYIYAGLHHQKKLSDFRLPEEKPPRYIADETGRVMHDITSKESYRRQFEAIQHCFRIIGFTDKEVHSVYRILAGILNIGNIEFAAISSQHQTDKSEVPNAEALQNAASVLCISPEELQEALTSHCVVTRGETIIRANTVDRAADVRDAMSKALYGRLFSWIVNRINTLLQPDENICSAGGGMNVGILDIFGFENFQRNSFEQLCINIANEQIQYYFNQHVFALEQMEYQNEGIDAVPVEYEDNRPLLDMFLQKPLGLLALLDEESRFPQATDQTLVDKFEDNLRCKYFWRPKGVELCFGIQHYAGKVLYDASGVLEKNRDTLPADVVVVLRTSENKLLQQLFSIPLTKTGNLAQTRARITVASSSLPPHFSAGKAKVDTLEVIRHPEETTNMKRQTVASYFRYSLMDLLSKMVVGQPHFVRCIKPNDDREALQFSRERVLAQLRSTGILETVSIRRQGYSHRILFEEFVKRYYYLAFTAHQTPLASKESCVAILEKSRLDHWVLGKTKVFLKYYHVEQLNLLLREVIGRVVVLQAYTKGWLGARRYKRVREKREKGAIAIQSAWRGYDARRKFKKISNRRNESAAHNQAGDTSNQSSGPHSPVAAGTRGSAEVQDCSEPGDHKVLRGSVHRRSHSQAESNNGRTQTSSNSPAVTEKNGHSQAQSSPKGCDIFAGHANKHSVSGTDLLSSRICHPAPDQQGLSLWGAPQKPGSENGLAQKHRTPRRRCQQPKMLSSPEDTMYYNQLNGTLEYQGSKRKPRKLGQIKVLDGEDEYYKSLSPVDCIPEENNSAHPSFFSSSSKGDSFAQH

CDK4-cyclinD3 = CDK4-cyclinD3 (Homo sapiens, UniProt P11802)
CDK4-cyclinD3, sequence (P11802 whole entry): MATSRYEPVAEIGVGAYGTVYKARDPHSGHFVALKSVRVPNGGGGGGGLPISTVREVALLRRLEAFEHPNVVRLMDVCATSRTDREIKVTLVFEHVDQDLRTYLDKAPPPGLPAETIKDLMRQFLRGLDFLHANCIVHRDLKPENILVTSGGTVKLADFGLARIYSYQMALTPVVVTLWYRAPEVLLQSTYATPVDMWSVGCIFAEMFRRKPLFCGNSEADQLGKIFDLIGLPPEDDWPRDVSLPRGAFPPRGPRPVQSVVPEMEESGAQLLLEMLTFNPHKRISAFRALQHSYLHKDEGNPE
CDK4-cyclinD3, sequence (P30281 whole entry partner): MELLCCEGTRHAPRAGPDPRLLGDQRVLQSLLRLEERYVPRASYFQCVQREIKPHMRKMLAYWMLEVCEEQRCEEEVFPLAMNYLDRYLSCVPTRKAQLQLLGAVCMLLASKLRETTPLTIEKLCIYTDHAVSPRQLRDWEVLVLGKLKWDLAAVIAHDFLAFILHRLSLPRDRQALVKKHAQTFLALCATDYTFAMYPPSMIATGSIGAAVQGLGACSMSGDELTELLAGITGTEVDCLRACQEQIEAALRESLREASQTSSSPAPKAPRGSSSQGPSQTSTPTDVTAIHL

PAK6 = PAK6 (Homo sapiens, UniProt Q9NQU5)
PIK3CA(H1047L) = PIK3CA(H1047L) (Homo sapiens, UniProt P42336, H1047L)
BRSK2 = BRSK2 (Homo sapiens, UniProt Q8IWQ3)
MARK4 = MARK4 (Homo sapiens, UniProt Q96L34)
PIM2 = PIM2 (Homo sapiens, UniProt Q9P1W9)
PIM2, sequence (Q9P1W9 whole entry): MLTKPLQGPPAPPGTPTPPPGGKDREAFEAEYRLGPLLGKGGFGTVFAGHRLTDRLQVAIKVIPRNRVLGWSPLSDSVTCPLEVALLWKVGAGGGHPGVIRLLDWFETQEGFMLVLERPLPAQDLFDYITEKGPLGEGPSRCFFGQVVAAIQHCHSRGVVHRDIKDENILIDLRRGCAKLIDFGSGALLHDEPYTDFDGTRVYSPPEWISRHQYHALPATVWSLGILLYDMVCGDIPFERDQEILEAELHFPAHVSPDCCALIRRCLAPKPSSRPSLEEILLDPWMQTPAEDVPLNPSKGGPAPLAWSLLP

AKT3 = AKT3 (Homo sapiens, UniProt Q9Y243)
ARK5 = molecular target: T1, ARK5 (Homo sapiens, UniProt O60285)
T1 construct: gene NUAK1

ABL2 = ABL2 (Homo sapiens, UniProt P42684)
INSRR = INSRR (Homo sapiens, UniProt P14616)
NEK7 = NEK7 (Homo sapiens, UniProt Q8TDX7)
MERTK = MERTK (Homo sapiens, UniProt Q12866)
DAPK2 = DAPK2 (Homo sapiens, UniProt Q9UIK4)
TAK1 = molecular target: T2, TAK1 (Homo sapiens, UniProt O43318)
T2 construct: gene MAP3K7

CDK7 = CDK7 (Homo sapiens, UniProt P50613)
PRKCI = PRKCI (Homo sapiens, UniProt P41743)
BMPR1B = BMPR1B (Homo sapiens, UniProt O00238)
ABL1-phosphorylated = ABL1-phosphorylated (Homo sapiens, UniProt P00519)
FLT3-autoinhibited = FLT3-autoinhibited (Homo sapiens, UniProt P36888)
MST1 = molecular target: T3, MST1 (Homo sapiens, UniProt Q13043)
T3 construct: gene STK4

FRK = FRK (Homo sapiens, UniProt P42685)
MEK4 = molecular target: T4, MEK4 (Homo sapiens, UniProt P45985)
T4 construct: gene MAP2K4

CDK4 = CDK4 (Homo sapiens, UniProt P11802)
CDK4, sequence (P11802 whole entry): as the sequence (P11802 whole entry) above

EIF2AK1 = EIF2AK1 (Homo sapiens, UniProt Q9BQI3)
PYK2 = molecular target: T5, PYK2 (Homo sapiens, UniProt Q14289)
T5 construct: gene PTK2B

ALK(C1156Y), sequence (Q9UM73 whole entry C1156Y): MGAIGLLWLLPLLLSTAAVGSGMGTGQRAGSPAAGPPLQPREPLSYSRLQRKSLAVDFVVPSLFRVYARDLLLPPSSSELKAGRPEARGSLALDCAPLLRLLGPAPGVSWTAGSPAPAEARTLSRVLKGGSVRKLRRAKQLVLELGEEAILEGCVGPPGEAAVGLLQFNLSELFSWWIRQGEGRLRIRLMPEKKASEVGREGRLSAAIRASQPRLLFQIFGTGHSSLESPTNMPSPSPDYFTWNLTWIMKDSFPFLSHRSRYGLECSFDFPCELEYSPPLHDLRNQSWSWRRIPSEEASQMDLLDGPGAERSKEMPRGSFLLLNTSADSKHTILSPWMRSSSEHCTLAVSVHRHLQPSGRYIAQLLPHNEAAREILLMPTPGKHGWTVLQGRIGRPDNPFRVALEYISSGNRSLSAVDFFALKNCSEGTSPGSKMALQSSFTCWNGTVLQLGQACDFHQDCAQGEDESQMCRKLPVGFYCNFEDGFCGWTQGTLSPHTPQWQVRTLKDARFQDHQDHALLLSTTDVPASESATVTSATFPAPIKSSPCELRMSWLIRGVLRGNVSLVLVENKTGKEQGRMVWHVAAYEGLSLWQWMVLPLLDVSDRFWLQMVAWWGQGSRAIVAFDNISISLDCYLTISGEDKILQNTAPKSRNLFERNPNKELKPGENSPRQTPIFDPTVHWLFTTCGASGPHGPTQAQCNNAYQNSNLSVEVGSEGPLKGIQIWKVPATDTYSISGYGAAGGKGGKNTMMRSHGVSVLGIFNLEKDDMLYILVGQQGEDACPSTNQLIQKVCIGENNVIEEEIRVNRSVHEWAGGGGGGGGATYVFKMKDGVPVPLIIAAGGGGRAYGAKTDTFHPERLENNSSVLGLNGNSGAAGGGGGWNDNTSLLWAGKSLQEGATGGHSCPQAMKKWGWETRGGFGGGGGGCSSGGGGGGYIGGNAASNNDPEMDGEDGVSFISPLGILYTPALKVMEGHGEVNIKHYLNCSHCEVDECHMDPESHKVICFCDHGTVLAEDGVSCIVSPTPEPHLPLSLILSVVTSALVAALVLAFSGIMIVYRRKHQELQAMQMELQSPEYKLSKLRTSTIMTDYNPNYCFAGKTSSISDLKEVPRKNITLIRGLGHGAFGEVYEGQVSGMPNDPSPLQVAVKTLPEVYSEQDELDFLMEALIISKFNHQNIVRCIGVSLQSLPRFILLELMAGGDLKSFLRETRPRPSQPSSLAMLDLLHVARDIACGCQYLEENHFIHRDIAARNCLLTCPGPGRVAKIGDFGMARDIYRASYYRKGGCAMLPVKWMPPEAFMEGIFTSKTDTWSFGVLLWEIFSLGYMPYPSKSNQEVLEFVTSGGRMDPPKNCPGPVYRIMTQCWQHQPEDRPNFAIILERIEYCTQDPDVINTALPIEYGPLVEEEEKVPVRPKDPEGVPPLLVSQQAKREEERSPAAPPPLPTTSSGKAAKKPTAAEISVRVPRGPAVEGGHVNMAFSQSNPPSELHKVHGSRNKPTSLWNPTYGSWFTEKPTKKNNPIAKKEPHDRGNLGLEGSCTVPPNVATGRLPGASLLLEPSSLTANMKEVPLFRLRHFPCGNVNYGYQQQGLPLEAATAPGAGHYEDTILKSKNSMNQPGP

Cc1cn(-c2cc(NC(=O)c3ccc4c(c3)CN(c3cncnc3)C[C@@H]4C)cc(C(F)(F)F)c2)cn1 [Compound 6j]
remaining activity at 1 µM (CDKL2): 93% | remaining activity at 1 µM (ALK(C1156Y)): 100% | remaining activity at 1 µM (SBK1): 100% | remaining activity at 1 µM (PIKFYVE): 100% | remaining activity at 1 µM [1]: 72% | remaining activity at 1 µM (FGFR2): 74% | remaining activity at 1 µM (RIOK1): 100% | remaining activity at 1 µM (MAP3K3): 85% | remaining activity at 1 µM (ERBB4): 100% | remaining activity at 1 µM (PDGFRB): 82% | remaining activity at 1 µM (MYO3B): 85% | remaining activity at 1 µM (CDK4-cyclinD3): 100% | remaining activity at 1 µM (PAK6): 85% | remaining activity at 1 µM (PIK3CA(H1047L)): 100% | remaining activity at 1 µM (BRSK2): 94% | remaining activity at 1 µM (MARK4): 100% | remaining activity at 1 µM (PIM2): 97% | remaining activity at 1 µM (AKT3): 96% | remaining activity at 1 µM (ARK5): 82% | remaining activity at 1 µM (ABL2): 46% | remaining activity at 1 µM (INSRR): 100% | remaining activity at 1 µM (NEK7): 87% | remaining activity at 1 µM (MERTK): 61% | remaining activity at 1 µM (DAPK2): 94% | remaining activity at 1 µM (TAK1): 93% | remaining activity at 1 µM (CDK7): 80% | remaining activity at 1 µM (PRKCI): 72% | remaining activity at 1 µM (BMPR1B): 100% | remaining activity at 1 µM (ABL1-phosphorylated): 80% | remaining activity at 1 µM (FLT3-autoinhibited): 100% | remaining activity at 1 µM (MST1): 85% | remaining activity at 1 µM (FRK): 63% | remaining activity at 1 µM (MEK4): 96% | remaining activity at 1 µM (CDK4): 98% | remaining activity at 1 µM (EIF2AK1): 92% | remaining activity at 1 µM (PYK2): 93%
